Data set [1] relates to Digitaria ciliaris. The data set is described as follows: Herbicidal activity against Digitaria ciliaris assessed as seedling death under green house at 0.5 kg/ha at 25 degC measured after 4 weeks. In kind it is functional, organism-based.
In data set [2] the test system is Echinochloa crus-galli. The data set is described as follows: Herbicidal activity against Echinochloa crus-galli (barnyard grass) assessed as seedling death under green house at 0.5 kg/ha at 25 degC measured after 4 weeks. In kind it is functional, organism-based.
Data set [3] has as its system Digitaria ciliaris. Nature of the data set: Herbicidal activity against Digitaria ciliaris assessed as seedling death under green house at 1 kg/ha at 25 degC measured after 4 weeks. Format: functional, organism-based.
Data set [4] relates to Amaranthus viridis. The data set is described as follows: Herbicidal activity against Amaranthus viridis assessed as seedling death under green house at 4 kg/ha at 25 degC measured after 4 weeks. In kind it is functional, organism-based.
In data set [5] the test system is Persicaria lapathifolia. Nature of the data set: Herbicidal activity against Persicaria lapathifolia assessed as seedling death under green house at 4 kg/ha at 25 degC measured after 4 weeks. Format: functional, organism-based.
Data set [6] concerns Echinochloa crus-galli. The data set is described as follows: Herbicidal activity against Echinochloa crus-galli (barnyard grass) assessed as seedling death under green house at 1 kg/ha at 25 degC measured after 4 weeks. In kind it is functional, organism-based.
Data set [7] has as its system Persicaria lapathifolia. Nature of the data set: Herbicidal activity against Persicaria lapathifolia assessed as seedling death under green house at 0.5 kg/ha at 25 degC measured after 4 weeks. In kind it is functional, organism-based.
Data set [8] has as its system Persicaria lapathifolia. The data set is described as follows: Herbicidal activity against Persicaria lapathifolia assessed as seedling death under green house at 1 kg/ha at 25 degC measured after 4 weeks. Format: functional, organism-based.
The test system of data set [9] is Amaranthus viridis. Nature of the data set: Herbicidal activity against Amaranthus viridis assessed as seedling death under green house at 1 kg/ha at 25 degC measured after 4 weeks. Format: functional, organism-based.
Data set [10] concerns Amaranthus viridis. The data set is described as follows: Herbicidal activity against Amaranthus viridis assessed as seedling death under green house at 0.5 kg/ha at 25 degC measured after 4 weeks. Format: functional, organism-based.
In another data set the test system is Gossypium hirsutum. Nature of the data set: Toxicity in Gossypium hirsutum cv. Hakushuu (cotton) assessed as seedling death under green house at 0.5 kg/ha at 25 degC measured after 4 weeks by crop selectivity assay. In kind it is organism-based. The note with it: in vivo, 672 h.
For another data set, the system named is Glycine max. Nature of the data set: Toxicity in Glycine max cv. Tamahomare (soybean) assessed as seedling death under green house at 0.5 kg/ha at 25 degC measured after 4 weeks by crop selectivity assay. Format: organism-based. The conditions noted are these: in vivo, 672 h.
The subject of data set [11] is Digitaria ciliaris. Nature of the data set: Herbicidal activity against Digitaria ciliaris assessed as seedling death under green house at 4 kg/ha at 25 degC measured after 4 weeks. Format: functional, organism-based.

Active and inactive are the calls of the source. The calls are words filed in the database; no cut-off is given here.

`CCC(C)N(C)C(=O)COc1onc(C(F)(F)F)c1C` (stereo not given): the result in the data set with Digitaria ciliaris [1], with Echinochloa crus-galli [2] and in the data set with Digitaria ciliaris [3] was Active.
Turning to `CN(C(=O)COc1onc(-c2ccccc2)c1Br)c1ccccc1`, the result with Amaranthus viridis [4] and in the data set with Persicaria lapathifolia [5] was inactive.
Regarding `CCCc1ccc(N(C)C(=O)COc2onc(C(F)(F)F)c2C)cc1`, the result with Echinochloa crus-galli [6] and in the data set with Echinochloa crus-galli [2] was Active. Besides, the outcome in the data set with Persicaria lapathifolia [7] and in the data set with Persicaria lapathifolia [8] was inactive.
`CCCN(C(=O)COc1onc(C(F)(F)F)c1C)c1ccccc1`: the result with Echinochloa crus-galli [6], with Echinochloa crus-galli [2] and in the data set on Digitaria ciliaris [3] was Active.
Regarding `CCc1ccc(N(C)C(=O)COc2onc(C(F)(F)F)c2C)cc1`, the result in the data set on Digitaria ciliaris [1], in the data set with Echinochloa crus-galli [6], with Echinochloa crus-galli [2] and with Digitaria ciliaris [3] was Active. The result in the data set on Persicaria lapathifolia [7] and in the data set with Persicaria lapathifolia [8] was inactive.
For the compound `COc1cccc(N(C)C(=O)COc2onc(C(F)(F)F)c2C)c1`, the outcome in the data set on Digitaria ciliaris [1], in the data set with Echinochloa crus-galli [6], in the data set on Amaranthus viridis [9], in the data set with Echinochloa crus-galli [2] and in the data set on Digitaria ciliaris [3] was Active.
As to `Cc1cccc(N(C)C(=O)COc2onc(C(F)(F)F)c2C)c1C`, the outcome with Digitaria ciliaris [1], in the data set with Echinochloa crus-galli [6], with Echinochloa crus-galli [2] and in the data set with Digitaria ciliaris [3] was Active. For the same compound, in the data set with Persicaria lapathifolia [7], the result was inactive.
For `Cc1c(C(F)(F)F)noc1OCC(=O)N(C)c1ccc(Cl)cc1`, the result with Amaranthus viridis [10], with Persicaria lapathifolia [7], with Amaranthus viridis [9] and in the data set with Persicaria lapathifolia [8] was inactive. The result with Echinochloa crus-galli [6] and in the data set with Digitaria ciliaris [3] was Active.
On to `Cc1c(C(F)(F)F)noc1OCC(=O)N(C)c1cccc([N+](=O)[O-])c1`, for which the result with Amaranthus viridis [10] and in the data set with Persicaria lapathifolia [7] was inactive. In the data set on Digitaria ciliaris [3], the outcome was Active.
With `Cc1c(C(F)(F)F)noc1OCC(=O)N(C)c1ccccc1I`, the result in the data set with Amaranthus viridis [10], in the data set on Digitaria ciliaris [1], in the data set on Echinochloa crus-galli [6], in the data set with Amaranthus viridis [9], in the data set on Echinochloa crus-galli [2] and with Digitaria ciliaris [3] was Active. For the same compound, the outcome in the data set with Persicaria lapathifolia [7] was inactive.
Regarding `CCc1noc(OCC(=O)N(C)c2ccccc2)c1-c1ccccc1`, in the data set on Persicaria lapathifolia [5], the result was inactive.
As to `Cc1cccc(N(C)C(=O)COc2onc(C(F)(F)F)c2C)c1`, the outcome in the data set with Amaranthus viridis [10], with Digitaria ciliaris [1], with Echinochloa crus-galli [6], in the data set with Amaranthus viridis [9], with Echinochloa crus-galli [2] and in the data set on Digitaria ciliaris [3] was Active.
Consider `Cc1ccccc1N(C)C(=O)COc1onc(C(F)(F)F)c1C`, for which the outcome with Amaranthus viridis [10], in the data set with Digitaria ciliaris [1], with Echinochloa crus-galli [6], in the data set with Amaranthus viridis [9], in the data set on Echinochloa crus-galli [2] and with Digitaria ciliaris [3] was Active.
As to `COc1ccccc1N(C)C(=O)COc1onc(C(F)(F)F)c1C`, the result with Digitaria ciliaris [1], with Echinochloa crus-galli [6], with Echinochloa crus-galli [2] and in the data set with Digitaria ciliaris [3] was Active.
Turning to `CCc1ccccc1N(C)C(=O)COc1onc(C(F)(F)F)c1C`, the outcome with Digitaria ciliaris [1], with Echinochloa crus-galli [6] and in the data set on Digitaria ciliaris [3] was Active. For the same compound, the result in the data set on Persicaria lapathifolia [7] and in the data set on Persicaria lapathifolia [8] was inactive.
As for `Cc1c(C(F)(F)F)noc1OCC(=O)N(C)c1ccc(F)cc1`, the result with Digitaria ciliaris [1], with Echinochloa crus-galli [6], with Echinochloa crus-galli [2] and with Digitaria ciliaris [3] was Active.
Consider `CCCCN(C)C(=O)COc1onc(C(F)(F)F)c1C`, for which, in the data set with Persicaria lapathifolia [7], the outcome was inactive.
`Cc1c(C(F)(F)F)noc1OCC(=O)N(C)c1cccc(Cl)c1`: the result with Digitaria ciliaris [1], in the data set on Echinochloa crus-galli [6], in the data set with Echinochloa crus-galli [2] and in the data set on Digitaria ciliaris [3] was Active.
`Cc1c(C(F)(F)F)noc1OCC(=O)N(c1ccccc1)C(C)C`: the outcome in the data set on Digitaria ciliaris [1], with Echinochloa crus-galli [6], with Echinochloa crus-galli [2] and in the data set with Digitaria ciliaris [3] was Active.
Regarding `CCc1c(C(F)(F)F)noc1OCC(=O)N(C)c1ccccc1`, the Activity entry in the data set on Gossypium hirsutum and in the data set with Glycine max was “Non-toxic” each time. In addition, the result in the data set with Digitaria ciliaris [1], in the data set on Echinochloa crus-galli [6], in the data set on Amaranthus viridis [9], in the data set with Echinochloa crus-galli [2] and with Digitaria ciliaris [3] was Active.
In the case of `Cc1ccc(C)c(N(C)C(=O)COc2onc(C(F)(F)F)c2C)c1`, the result in the data set with Echinochloa crus-galli [6] and in the data set with Echinochloa crus-galli [2] was Active. For the same compound, the outcome in the data set on Persicaria lapathifolia [7] and with Persicaria lapathifolia [8] was inactive.
As to `Cc1c(C(F)(F)F)noc1OCC(=O)N(C)c1ccc([N+](=O)[O-])cc1`, the outcome with Amaranthus viridis [4] and in the data set with Persicaria lapathifolia [5] was inactive.
As to `Cc1c(C(F)(F)F)noc1OCC(=O)N(C)c1ccc(Br)cc1`, the outcome in the data set on Amaranthus viridis [10], with Persicaria lapathifolia [7], in the data set on Amaranthus viridis [9] and with Persicaria lapathifolia [8] was inactive. The result with Digitaria ciliaris [1], in the data set on Echinochloa crus-galli [6] and with Digitaria ciliaris [3] was Active.
Consider `Cc1c(C(F)(F)F)noc1OCC(=O)N(C)c1ccccc1C(C)C`, for which the outcome with Amaranthus viridis [10], with Persicaria lapathifolia [7], with Amaranthus viridis [9] and in the data set with Persicaria lapathifolia [8] was inactive. The result in the data set on Echinochloa crus-galli [6] and in the data set with Digitaria ciliaris [3] was Active.
For `Cc1ccc(N(C)C(=O)COc2onc(C(F)(F)F)c2C)cc1`, the outcome in the data set on Digitaria ciliaris [1], with Echinochloa crus-galli [6], in the data set with Amaranthus viridis [9], in the data set with Echinochloa crus-galli [2] and in the data set on Digitaria ciliaris [3] was Active.
For `Cc1c(C(F)(F)F)noc1OCC(=O)N(C)c1c(Cl)cccc1Cl`, the outcome in the data set on Amaranthus viridis [4] and with Persicaria lapathifolia [5] was inactive.
Consider `Cc1c(Cl)cccc1N(C)C(=O)COc1onc(C(F)(F)F)c1C`, for which the result in the data set with Digitaria ciliaris [1], in the data set on Echinochloa crus-galli [6], in the data set with Echinochloa crus-galli [2] and in the data set on Digitaria ciliaris [3] was Active.
Consider `COc1ccc(N(C)C(=O)COc2onc(C(F)(F)F)c2C)cc1`, for which the result in the data set on Amaranthus viridis [10], in the data set with Digitaria ciliaris [1], in the data set on Echinochloa crus-galli [6], in the data set on Amaranthus viridis [9], in the data set on Echinochloa crus-galli [2] and in the data set with Digitaria ciliaris [3] was Active. Moreover, the outcome in the data set with Persicaria lapathifolia [7] was inactive.
Consider `CCCCCN(C(=O)COc1onc(C(F)(F)F)c1C)c1ccccc1`, for which the outcome in the data set on Amaranthus viridis [4], in the data set with Digitaria ciliaris [11] and in the data set with Persicaria lapathifolia [5] was inactive.
For the compound `CN(C(=O)COc1cc(C(C)(C)C)no1)c1ccccc1`, the outcome with Amaranthus viridis [4], with Digitaria ciliaris [11] and in the data set with Persicaria lapathifolia [5] was inactive.
As for `CCN(C(=O)COc1onc(C(F)(F)F)c1C)c1ccccc1`, the outcome with Digitaria ciliaris [1], in the data set on Echinochloa crus-galli [6], with Echinochloa crus-galli [2] and in the data set with Digitaria ciliaris [3] was Active.
In the case of `CCc1cccc(N(C)C(=O)COc2onc(C(F)(F)F)c2C)c1`, the outcome in the data set on Amaranthus viridis [10], in the data set with Digitaria ciliaris [1], in the data set on Echinochloa crus-galli [6], in the data set with Amaranthus viridis [9], in the data set on Echinochloa crus-galli [2] and in the data set on Digitaria ciliaris [3] was Active.
Regarding `Cc1c(C(F)(F)F)noc1OCC(=O)N(C)c1ccccc1F`, the result in the data set on Amaranthus viridis [10], in the data set with Digitaria ciliaris [1], in the data set with Echinochloa crus-galli [6], with Amaranthus viridis [9], with Echinochloa crus-galli [2] and in the data set on Digitaria ciliaris [3] was Active.
Regarding `Cc1c(C(F)(F)F)noc1OCC(=O)N(C)c1cccc(Br)c1`, the outcome in the data set on Digitaria ciliaris [1], in the data set with Echinochloa crus-galli [6], in the data set on Echinochloa crus-galli [2] and in the data set on Digitaria ciliaris [3] was Active.
Turning to `Cc1c(C(F)(F)F)noc1OCC(=O)N(C)CC(C)C`, the result in the data set with Digitaria ciliaris [1], in the data set with Echinochloa crus-galli [6] and in the data set with Digitaria ciliaris [3] was Active.
For `Cc1c(C(F)(F)F)noc1OCC(=O)N(C)c1c(F)cccc1F`, the outcome with Echinochloa crus-galli [6] was Active. Moreover, the outcome in the data set with Persicaria lapathifolia [7] and in the data set on Persicaria lapathifolia [8] was inactive.

The values are drawn from ChEMBL document CHEMBL3045011, “Synthesis and Herbicidal Activities of 2-(5-Isoxazolyloxy)-acetamide Derivatives” (J Pestic Sci, 1998).
